Laboratory results from article PMC10455244, “Alpha-Mangostin: A Potent Inhibitor of TRPV3 and Pro-Inflammatory Cytokine Secretion in Keratinocytes” (International Journal of Molecular Sciences, 2023).

How the values were obtained:
[1] = test system: HEK 293T cells expressing the WT TRPV3; assay: in vitro; type: cell-based, human; conditions: 24 h
[2] = test system: TRPV3 (G573C)-expressing HEK 293T cells; assay: cells; type: cell-based; conditions: Homo sapiens, 24 h, read-out: Cell viability (normalized O.D., compared with mock cells)
Source text: (§1) Figure 4 Alpha-mangostin inhibited the activity of hyperactive TRPV3 mutant channels and rescued mutation-induced cell death. (A) Alpha-mangostin inhibited the channel current in representative TRPV3 (G573S)- and TRPV3 (G573C)-expressing HEK 293T cells. […] Currents were normalized to the response at −100 mV before adding alpha-mangostin. (C) Alpha-mangostin inhibited TRPV3-mediated intracellular calcium increase in TRPV3 (G573S)-expressing HEK 293T cells. […] The bar graph on the right summarizes the change in the intracellular calcium rise inhibited by alpha-mangostin. Cells were perfused with calcium-free solutions containing 0 or 1 µM alpha-mangostin or 10 µM 74a before changing to 1.3 mM Ca^2+ solutions containing the same substance concentration. (D) Alpha-mangostin inhibited TRPV3-mediated intracellular calcium increase in TRPV3 (G573C)-expressing HEK 293T cells. […] The bar graph on the right summarizes the change in the intracellular calcium rise inhibited by alpha-mangostin. Cells were perfused with calcium-free solutions containing 0 or 1 µM alpha-mangostin or 10 µM 74a before changing to 1.3 mM Ca^2+ solutions containing the same substance concentration. […]
(§2) The cell counting kit-8 (CCK8; Dojindo Laboratories, Kumamoto, Japan) was employed for viability assay. […] The optical density (O.D., 450 nm) of each well was measured after incubating the cells with CCK-8 solution ([…]) for 2 h. […]

[3] = test system: TRPV3 (G573S)-expressing HEK 293T cells; assay: cells; type: cell-based; conditions: Homo sapiens, 24 h, read-out: Cell viability (normalized O.D., compared with mock cells)
Source text: as §1, §2

Structure (SMILES): COc1c(O)cc2oc3cc(O)c(CC=C(C)C)c(O)c3c(=O)c2c1CC=C(C)C [Alpha-mangostin]
- Increase of viability of cells expressing the WT channel ([1]; 1 µM alone): not statistically significant
- Cell viability (normalized O.D., compared with mock cells) ([1]; human, 1 µM): 82.07% ± 1.34
- viability at 1 µM [2]: 93.5%
- viability at 1 µM [3]: 86.8%
